Test results reported in paper PMC12012479, “Structural and functional characterization of the brain-specific dynamin superfamily member RNF112” (Proceedings of the National Academy of Sciences of the …, 2025).
Changes are numbered by the printed parent chain.

Assays:
[1] = molecular target: T1, RNF112T (xlRNF112T) (Xenopus laevis, UniProt Q2VPQ0); test: ITC; assay type: binding; details: 5 mM MgCl2, 150 mM NaCl, pH 7.4, 25 °C
T1 construct: gene rnf112.2.L; GTPase domain + three-helix middle domain; His6-SUMO tag cut by ULP1; E. coli; monomer, dimer with GDP-AlF4-
T1 sequence (Q2VPQ0 120-541 limits assumed): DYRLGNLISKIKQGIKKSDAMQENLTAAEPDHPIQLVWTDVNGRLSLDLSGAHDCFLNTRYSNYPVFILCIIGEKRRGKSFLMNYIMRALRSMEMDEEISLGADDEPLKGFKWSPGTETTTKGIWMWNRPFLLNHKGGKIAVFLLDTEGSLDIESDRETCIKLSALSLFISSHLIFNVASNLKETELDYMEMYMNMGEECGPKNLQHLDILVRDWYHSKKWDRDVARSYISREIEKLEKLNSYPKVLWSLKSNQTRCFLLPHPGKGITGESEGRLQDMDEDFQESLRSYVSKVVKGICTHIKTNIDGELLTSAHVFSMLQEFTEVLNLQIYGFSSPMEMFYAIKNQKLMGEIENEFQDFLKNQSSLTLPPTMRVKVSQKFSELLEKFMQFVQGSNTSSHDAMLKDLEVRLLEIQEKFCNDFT
Description: ITC on RNF112T (xlRNF112T) | binding GTPγS and GDP with dissociation constants (Kd) in the micromolar range

[2] = molecular target: T1, RNF112T (xlRNF112T); test: X-ray crystal structure (form […] from GTPγS, […] Å; form […] by soaking); assay type: binding; details: nucleotide pocket of GTPase domain
[3] = molecular target: T2, RNF112F (Xenopus laevis, UniProt Q2VPQ0, T240A, form not given); test: binding assay in SI Fig. S9; details: GTPase-deficient mutant
T2 construct: gene rnf112.2.L; near-full-length, residues 60 to 541 (RING, GTPase and middle domains); His6-SUMO tag cut by ULP1; E. coli; dimer with GDP-AlF4-
T2 sequence (Q2VPQ0 60-541 T240A): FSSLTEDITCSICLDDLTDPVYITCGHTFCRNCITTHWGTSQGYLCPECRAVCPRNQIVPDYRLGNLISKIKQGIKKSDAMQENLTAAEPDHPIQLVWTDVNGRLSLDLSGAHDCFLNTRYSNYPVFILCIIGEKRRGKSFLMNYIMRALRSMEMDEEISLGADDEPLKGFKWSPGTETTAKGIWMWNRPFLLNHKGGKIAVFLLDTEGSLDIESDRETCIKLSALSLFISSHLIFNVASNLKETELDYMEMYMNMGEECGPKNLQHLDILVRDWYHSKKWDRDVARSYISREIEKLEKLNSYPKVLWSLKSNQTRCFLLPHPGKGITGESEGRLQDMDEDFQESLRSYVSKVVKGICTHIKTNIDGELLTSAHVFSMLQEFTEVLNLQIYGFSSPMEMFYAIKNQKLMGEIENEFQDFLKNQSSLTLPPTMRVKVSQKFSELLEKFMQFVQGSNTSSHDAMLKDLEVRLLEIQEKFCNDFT

[4] = molecular target: T3, mouse RNF112T (Mus musculus, UniProt Q96DY5); test: GTP hydrolysis assay; assay type: biochemical; details: 1 mM GTP, 20 μM protein, 1 mM MnCl2, pH 7.0, 37 °C
T3 construct: gene Rnf112; truncated, GTPase domain + middle domain (borders not in main text); E. coli
T3 sequence (Q96DY5 170-563 limits assumed): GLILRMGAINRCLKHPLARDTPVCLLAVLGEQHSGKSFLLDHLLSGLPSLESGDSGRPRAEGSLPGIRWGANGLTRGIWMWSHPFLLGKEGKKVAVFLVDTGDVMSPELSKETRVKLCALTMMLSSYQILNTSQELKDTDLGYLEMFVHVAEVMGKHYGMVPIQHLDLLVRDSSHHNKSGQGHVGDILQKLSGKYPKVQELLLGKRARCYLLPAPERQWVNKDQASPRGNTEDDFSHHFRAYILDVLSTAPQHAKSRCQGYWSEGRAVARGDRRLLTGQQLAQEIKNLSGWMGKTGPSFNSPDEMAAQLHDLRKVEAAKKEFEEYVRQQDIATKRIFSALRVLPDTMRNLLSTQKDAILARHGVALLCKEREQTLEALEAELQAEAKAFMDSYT

[5] = molecular target: T4, RNF112F (Xenopus laevis, UniProt Q2VPQ0); test: GTP hydrolysis assay; assay type: biochemical; details: 1 mM GTP, 20 μM protein, 1 mM MnCl2, pH 7.0, 37 °C
T4 construct: gene rnf112.2.L; near-full-length, residues 60 to 541 (RING, GTPase and middle domains); His6-SUMO tag cut by ULP1; E. coli; dimer with GDP-AlF4-
T4 sequence (Q2VPQ0 60-541): T2 sequence (Q2VPQ0 60-541 T240A) with A181T

[6] = molecular target: T5, human RNF112T (Homo sapiens, UniProt Q9ULX5); test: GTP hydrolysis assay; assay type: biochemical; details: 1 mM GTP, 20 μM protein, 1 mM MnCl2, pH 7.0, 37 °C
T5 construct: gene RNF112; truncated, GTPase domain + middle domain (borders not in main text); E. coli
T5 sequence (Q9ULX5 150-540 limits assumed): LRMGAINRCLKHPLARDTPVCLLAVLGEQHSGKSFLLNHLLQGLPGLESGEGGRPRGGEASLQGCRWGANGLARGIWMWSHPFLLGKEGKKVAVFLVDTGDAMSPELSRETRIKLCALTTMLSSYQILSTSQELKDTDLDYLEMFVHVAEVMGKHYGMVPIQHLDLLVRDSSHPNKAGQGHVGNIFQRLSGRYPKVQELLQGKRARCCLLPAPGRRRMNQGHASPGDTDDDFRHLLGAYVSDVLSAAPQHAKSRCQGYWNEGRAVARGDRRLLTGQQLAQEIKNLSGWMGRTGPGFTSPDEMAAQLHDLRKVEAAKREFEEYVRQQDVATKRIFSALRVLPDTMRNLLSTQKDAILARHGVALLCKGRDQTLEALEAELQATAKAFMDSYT

[7] = molecular target: near-full-length Xenopus laevis RNF112 containing residues 60 to 541 (RNF112F) (Xenopus laevis); test: SEC; analytical gel filtration in the presence of GDP•AlF4^−

**Q.** How did the Kd [1] turn out when `Nc1nc2c(ncn2[C@@H]2O[C@H](COP(=O)(O)OP(=O)(O)O)[C@@H](O)[C@H]2O)c(=O)[nH]1` [GDP] was run?
**A.** The Kd was 14.4 ± 2.5 µM.

**Q.** And the “X-ray crystal structure (form 1 from GTPγS, 2.2 Å; form 2 by soaking)” value [2]?
**A.** The value was “GDP-bound RNF112T structure derived from a nucleotide-free RNF112T crystal soaked with GDP”.

**Q.** `Nc1nc2c(ncn2[C@@H]2O[C@H](COP(=O)(O)OP(=O)(O)OP(=O)(O)O)[C@@H](O)[C@H]2O)c(=O)[nH]1` [GTP] was tested. Which “binding assay in SI Fig. S9” value [3] did it give?
**A.** Its value is “GTPase-deficient mutant RNF112F(T240A), which bound GTP but did not dimerize”.

**Q.** And the GTP hydrolysis assay [4]?
**A.** The GTP hydrolysis assay was “purified human and mouse RNF112T had relatively weak GTPase activity”.

**Q.** What about the GTP hydrolysis assay [5] of the same molecule?
**A.** Its GTP hydrolysis assay is “showed similar GTPase activity as RNF112T”.

**Q.** And the GTP hydrolysis assay [6]?
**A.** Its GTP hydrolysis assay is “purified human and mouse RNF112T had relatively weak GTPase activity”.

**Q.** How did the stoichiometry N [7] turn out when “near-full-length Xenopus laevis RNF112 containing residues 60 to 541 (RNF112F) (domain or fragment)” was run?
**A.** The stoichiometry N was 2.
